From patent US20040097595A1, “Phthalamide derivatives, insecticides for agricultural and horticultural use and method for application thereof” (priority 2001, published 2004)

Tests used:
[1] = test system: Diamond Back Moth (Plutella xylostella); assay: Test Example 1: insecticidal effect on diamond back moth, Chinese cabbage seedling with eggs immersed in liquid chemical; type: in vivo; settings: eggs on Chinese cabbage seedling immersed about 30 seconds, six days after immersion, 25° C.
Source text: Insecticidal Effect on Diamond Back Moth (Plutella xylostella)
Adult diamond back moths were released and allowed to oviposit on a Chinese cabbage seedling. Two days after the release, the seedling having the eggs deposited thereon was immersed for about 30 seconds in a liquid chemical prepared by diluting a preparation containing each compound listed in Table 1 or 2 as an active ingredient to adjust the prescribed concentration. After air-dryness, it was allowed to stand in a room thermostatted at 25° C. Six days after the immersion, the hatched insects were counted. The mortality was calculated according to the following equation and the insecticidal effect was judged according to the criterion shown below. The test was carried out with triplicate groups of 10 insects. [formula]

[2] = test system: Common Cutworm (Spodoptera litura); assay: Test Example 2: insecticidal effect on common cutworm, cabbage leaf immersion; type: in vivo; settings: cabbage leaf immersed, second-instar larvae, eight days after inoculation, 25° C.
Source text: Insecticidal Effect on Common Cutworm (Spodoptera litura)
A piece of cabbage leaf (cultivar; Shikidori) was immersed for about 30 seconds in a liquid chemical prepared by diluting a preparation containing each compound listed in Table 1 or 2 as an active ingredient to adjust the prescribed concentration. After air-dryness, it was placed in a plastic Petri dish with a diameter of 9 cm and inoculated with second-instar larvae of common cutworm, after which the dish was closed and then allowed to stand in a room thermostatted at 25° C. Eight days after the inoculation, the dead and alive were counted. The mortality was calculated according to the following equation and the insecticidal effect was judged according to the criterion shown in Test Example 1. The test was carried out with triplicate groups of 10 insects. [formula]

| SMILES | Test Example 1 insecticidal effect (mortality grade) ([1]; 5 ppm) | Test Example 1 insecticidal effect (mortality grade) ([1]; 50 ppm) | Test Example 2 insecticidal effect (mortality grade) ([2]; 5 ppm) | Test Example 2 insecticidal effect (mortality grade) ([2]; 50 ppm) | mortality at 5 ppm ([1]; Plutella xylostella, 144 h, 5 ppm, read-out: Test Example 1 insecticidal effect (mortality grade)) | mortality at 50 ppm ([1]; Plutella xylostella, 144 h, 50 ppm, read-out: Test Example 1 insecticidal effect (mortality grade)) | mortality at 5 ppm ([2]; Spodoptera litura, 192 h, 5 ppm, read-out: Test Example 2 insecticidal effect (mortality grade)) | mortality at 50 ppm ([2]; Spodoptera litura, 192 h, 50 ppm, read-out: Test Example 2 insecticidal effect (mortality grade)) |
| --- | --- | --- | --- | --- | --- | --- | --- | --- |
| CSCC(C)(C)NC(=O)c1c(I)cccc1C(=O)Nc1ccc(Oc2ccc(C(F)(F)F)cn2)cc1Cl [Compound 1-94] | A (Mortality 100%) | A (Mortality 100%) | E (Mortality 49-0%) | A (Mortality 100%) | – | – | – | – |
| CSCC(C)(C)NC(=O)c1c(I)cccc1C(=O)Nc1ccc(S(=O)(=O)C(F)(F)F)cc1Cl [Compound 1-111] | A (Mortality 100%) | A (Mortality 100%) | E (Mortality 49-0%) | A (Mortality 100%) | – | – | – | – |
| CC(C)(CS(C)(=O)=O)NC(=O)c1c(I)cccc1C(=O)Nc1ccc(Oc2ncc(C(F)(F)F)cc2Cl)cc1Cl [Compound 1-97] | A (Mortality 100%) | A (Mortality 100%) | E (Mortality 49-0%) | A (Mortality 100%) | – | – | – | – |
| CSCC(C)(C)NC(=O)c1c(I)cccc1C(=O)Nc1ccc(OC(F)(F)Cl)cc1Cl [Compound 1-48] | A (Mortality 100%) | A (Mortality 100%) | A (Mortality 100%) | A (Mortality 100%) | – | – | – | – |
| CSCC(C)(C)NC(=O)c1c(I)cccc1C(=O)Nc1ccc(OC(F)(F)C(F)Cl)cc1Cl (centres unmarked) [Compound 1-58] | E (Mortality 49-0%) | A (Mortality 100%) | E (Mortality 49-0%) | A (Mortality 100%) | – | – | – | – |
| CSCC(C)(C)NC(=O)c1c(I)cccc1C(=O)Nc1ccc(OC(F)(F)C(F)C(F)(F)F)c(Cl)c1Cl (centres unmarked) [Compound 1-69] | A (Mortality 100%) | A (Mortality 100%) | E (Mortality 49-0%) | A (Mortality 100%) | – | – | – | – |
| CSCC(C)(C)NC(=O)c1c(I)cccc1C(=O)Nc1ccc(SC(F)F)cc1Cl [Compound 1-107] | A (Mortality 100%) | A (Mortality 100%) | E (Mortality 49-0%) | E (Mortality 49-0%) | – | – | – | – |
| CC(C)(CS(C)(=O)=O)NC(=O)c1c(I)cccc1C(=O)Nc1ccc(OC(F)(F)C(F)OC(F)(F)F)cc1Cl (centres unmarked) [Compound 1-76] | A (Mortality 100%) | A (Mortality 100%) | E (Mortality 49-0%) | A (Mortality 100%) | – | – | – | – |
| CSCC(C)(C)NC(=O)c1c(I)cccc1C(=O)Nc1ccc(OC(F)F)c(Cl)c1Cl [Compound 1-43] | A (Mortality 100%) | A (Mortality 100%) | A (Mortality 100%) | A (Mortality 100%) | – | – | – | – |
| CC(C)(CS(C)(=O)=O)NC(=O)c1c(I)cccc1C(=O)Nc1ccc(OC(F)(F)C(F)OC(F)(F)C(F)(F)C(F)(F)F)c(Cl)c1Cl (centres unmarked) [Compound 1-86] | A (Mortality 100%) | A (Mortality 100%) | D (Mortality 79-50%) | A (Mortality 100%) | – | – | – | – |
| CC(C)(CS(C)(=O)=O)NC(=O)c1c(I)cccc1C(=O)Nc1ccc(OC(F)(F)C(F)C(F)(F)F)c(Cl)c1Cl (centres unmarked) [Compound 1-71] | A (Mortality 100%) | A (Mortality 100%) | E (Mortality 49-0%) | A (Mortality 100%) | – | – | – | – |
| C[S+]([O-])CC(C)(C)NC(=O)c1c(I)cccc1C(=O)Nc1ccc(Oc2ncc(C(F)(F)F)cc2Cl)cc1Cl (centres unmarked) [Compound 1-96] | A (Mortality 100%) | A (Mortality 100%) | E (Mortality 49-0%) | A (Mortality 100%) | – | – | – | – |
| CC(C)(CS(C)(=O)=O)NC(=O)c1c(I)cccc1C(=O)Nc1ccc(Oc2ncc(C(F)(F)F)cc2Cl)c(Cl)c1Cl [Compound 1-100] | A (Mortality 100%) | A (Mortality 100%) | E (Mortality 49-0%) | A (Mortality 100%) | – | – | – | – |
| C[S+]([O-])CC(C)(C)NC(=O)c1c(I)cccc1C(=O)Nc1ccc(OC(F)(F)C(F)OC(F)(F)F)cc1Cl (centres unmarked) [Compound 1-75] | A (Mortality 100%) | A (Mortality 100%) | E (Mortality 49-0%) | A (Mortality 100%) | – | – | – | – |
| C[S+]([O-])CC(C)(C)NC(=O)c1c(I)cccc1C(=O)Nc1ccc(OC(F)(F)C(F)OC(F)(F)C(F)(F)C(F)(F)F)cc1Cl (centres unmarked) [Compound 1-82] | A (Mortality 100%) | A (Mortality 100%) | C (Mortality 89-80%) | A (Mortality 100%) | – | – | – | – |
| CSCC(C)(C)NC(=O)c1c(I)cccc1C(=O)Nc1ccc(Oc2ncc(C(F)(F)F)cc2Cl)c(Cl)c1Cl [Compound 1-98] | A (Mortality 100%) | A (Mortality 100%) | E (Mortality 49-0%) | A (Mortality 100%) | – | – | – | – |
| CSCC(C)(C)NC(=O)c1c(I)cccc1C(=O)Nc1ccc(OC(F)(F)C(F)OC(F)(F)C(F)(F)C(F)(F)F)cc1Cl (centres unmarked) [Compound 1-81] | A (Mortality 100%) | A (Mortality 100%) | A (Mortality 100%) | A (Mortality 100%) | – | – | – | – |
| CSCC(C)(C)NC(=O)c1c(I)cccc1C(=O)Nc1ccc(Oc2ncc(C(F)(F)F)cc2Cl)cc1Cl [Compound 1-95] | A (Mortality 100%) | A (Mortality 100%) | E (Mortality 49-0%) | A (Mortality 100%) | – | – | – | – |
| CC(C)(CS(C)(=O)=O)NC(=O)c1c(I)cccc1C(=O)Nc1ccc(OC(F)(F)C(F)OC(F)(F)C(F)(F)C(F)(F)F)cc1Cl (centres unmarked) [Compound 1-83] | A (Mortality 100%) | A (Mortality 100%) | A (Mortality 100%) | A (Mortality 100%) | – | – | – | – |
| C[S+]([O-])CC(C)(C)NC(=O)c1c(I)cccc1C(=O)Nc1ccc(OC(F)(F)C(F)OC(F)(F)C(F)(F)C(F)(F)F)c(Cl)c1Cl (centres unmarked) [Compound 1-85] | A (Mortality 100%) | A (Mortality 100%) | E (Mortality 49-0%) | A (Mortality 100%) | – | – | – | – |
| C[S+]([O-])CC(C)(C)NC(=O)c1c(I)cccc1C(=O)Nc1ccc(OC(F)(F)F)cc1Cl (centres unmarked) [Compound 1-52, N^1-[2-chloro-4-(trifluoromethoxy)phenyl]-N^2-(1,1-dimethyl-2methylsulfinylethyl)-3-iodophthalamide] | – | – | – | – | 100% | 100% | 100% | 100% |
| CSCC(C)(C)NC(=O)c1c(I)cccc1C(=O)Nc1ccc(OC(F)(F)C(F)OC(F)(F)C(F)(F)C(F)(F)F)c(Cl)c1Cl (centres unmarked) [Compound 1-84] | E (Mortality 49-0%) | A (Mortality 100%) | E (Mortality 49-0%) | A (Mortality 100%) | – | – | – | – |
| C[S+]([O-])CC(C)(C)NC(=O)c1c(I)cccc1C(=O)Nc1ccc(OC(F)(F)C(F)C(F)(F)F)cc1Cl (centres unmarked) [Compound 1-67] | A (Mortality 100%) | A (Mortality 100%) | E (Mortality 49-0%) | A (Mortality 100%) | – | – | – | – |
